Measured values reported in patent US5620954A, “Peptide compositions and uses therefor” (Magainin Pharmaceuticals, Inc., priority 1995, dated 1997).

Key:
Test in all cases: Antibacterial assay, minimal inhibitory concentration (MIC), microtiter broth dilution
Format in all cases: cell-based
[1] = test system: P. aeruginosa strain ATCC 27853; settings: P. aeruginosa ATCC 27853; Mueller Hinton broth; 16-20 hours at 37° C.
Excerpt: (§1) Table I, which follows, indicates the Minimal Inhibitory Concentration (MIC) in μg/ml of Peptides (SEQ ID NO:1) through (SEQ ID NO:27 ) against S. aureus strain ATCC 25923, P. aeruginosa strain ATCC 27853, and E.coli ATCC strain 25922. (Legend) The procedure for the antibacterial assay is based upon the guidelines of the National Committee for Clinical Laboratory Standards, Document M7-T2, Volume 8, No. 8, 1988. Stock solutions of the hereinabove described peptides in accordance with the present invention are prepared at a concentration of 512 μg/ml in sterile deionized distilled water and stored at -70° C. The stock peptide solution is diluted in serial dilutions (1:2) down the wells of a microtiter plate so that the final concentrations of peptides in the wells are 0.25, 0.50, 1, 2, 4, 8, 16, 32, 64, 128, and 256 μg/ml. 1-5×10^5 CFUs/ml of either S. aureus ATCC 25923, E. coli ATCC 25922, or P. aeruginosa ATCC 27853 were added to the wells in full strength Mueller Hinton broth (BBL 11443) from a mid-log culture. The inoculum is standardized spectrophotometrically at 600 nm and is verified by colony counts. The plates are incubated for 16-20 hours at 37° C., and the minimal inhibitory concentration (MIC) for each peptide is determined. Minimal inhibitory concentration is defined as the lowest concentration of peptide which produces a clear well in the microtiter plate.

E.coli ATCC strain 25922 = settings: E. coli ATCC 25922; Mueller Hinton broth; 16-20 hours at 37° C.
Excerpt: as §1

[2] = test system: S. aureus strain ATCC 25923; settings: S. aureus ATCC 25923; Mueller Hinton broth; 16-20 hours at 37° C.
Excerpt: as §1

Row | Substance | Minimal Inhibitory Concentration (MIC), Activity, P. aeruginosa [1] | Minimal Inhibitory Concentration (MIC), Activity, E. coli (E.coli ATCC strain 25922) | Minimal Inhibitory Concentration (MIC), Activity, S. aureus [2]
1 | SEQ ID NO: 21: biologically active amphiphilic peptide (GLASLLGKALKAALKIGANMLGGSPQQ) | 128 µg/mL | 32 µg/mL | 64 µg/mL
2 | SEQ ID NO: 22: biologically active amphiphilic peptide (GFGSFLGKALKAALKIGANLLGGTPQQ) | 16,32 μg/ml | 8,16 μg/ml | 16 µg/mL
3 | SEQ ID NO: 23: biologically active amphiphilic peptide (GFAKFLGKALKAALKIGANLLGGTPQQ) | 8,16 μg/ml | 4,8 μg/ml | 8 µg/mL
4 | SEQ ID NO: 24: biologically active amphiphilic peptide (GFGKFLGKALKAALKIGANLLGGTPQQ) | 16 µg/mL | 8,16 μg/ml | 8 µg/mL
5 | SEQ ID NO: 25: biologically active amphiphilic peptide (GFKKFLGKALKAALKIGANLLGGTPQQ) | 32 µg/mL | 8,32 μg/ml | 8,16 μg/ml
6 | SEQ ID NO: 26: biologically active amphiphilic peptide (GLASFLGKALKAALKIGANLLGGTPQQ) | 64,128 μg/ml | 8,16 μg/ml | 16,32 μg/ml
7 | SEQ ID NO: 27: biologically active amphiphilic peptide (GLASLLGKALKAALKIGANLLGGTPQQ) | 128 µg/mL | 32 µg/mL | 32 µg/mL
